The results in this text go back to paper PMC6522510 (Nature Communications, 2019).

SMILES strings stand for the structures. Bounds are passed on as bounds.

Test [1] has as its system MOLM-13. Description: Secondary dose-response HTS, Cell Titer Glo. The class given is cell-based, human. The conditions noted are these: Homo sapiens; secondary high-throughput screen; MOLM-13; read-out: average effective concentration, MOLM-13. (In general: Cellular ATP, detected with luciferase, serves as a proxy for viable cell number.)
The test system of test [2] is MV4-11. Description: cells. Set-up: species or system AML cell lines (8); Secondary HTS, 10-point dose-response in triplicate, Cell Titer Glo viability, four-parameter fit EC50. The conditions noted are these: Homo sapiens, MV4-11, 72 h, read-out: MV4-11.
Test [3] has as its system CHRF288-11. Description: cells. Set-up: species or system AML cell lines (8); Secondary HTS, 10-point dose-response in triplicate, Cell Titer Glo viability, four-parameter fit EC50. As to conditions: 72 h, read-out: CHRF288-11.
For test [4], the system named is CMS. The test is described as follows: cells. Set-up: species or system AML cell lines (8); Secondary HTS, 10-point dose-response in triplicate, Cell Titer Glo viability, four-parameter fit EC50. The conditions noted are these: 72 h, read-out: CMS.
Test [5] relates to M07e. Description: cells. The conditions noted are these: M-07e, 72 h, read-out: M07e. More on the design: species or system AML cell lines (8); Secondary HTS, 10-point dose-response in triplicate, Cell Titer Glo viability, four-parameter fit EC50.
Another test concerns ML-2. The test is described as follows: cells. Set-up: species or system AML cell lines (8); Secondary HTS, 10-point dose-response in triplicate, Cell Titer Glo viability, four-parameter fit EC50. As to conditions: Homo sapiens, ML-2, 72 h, read-out: ML-2.
Test [6] deals with U937. The test is described as follows: cells. More on the design: species or system AML cell lines (8); Secondary HTS, 10-point dose-response in triplicate, Cell Titer Glo viability, four-parameter fit EC50. The conditions noted are these: Homo sapiens, U-937, 72 h, read-out: U937.
For test [7], the system named is CHRF288-11. Description: Secondary dose-response HTS, Cell Titer Glo. The test is classed as cell-based, human. As to conditions: Homo sapiens, HTS; secondary high-throughput screen; CHRF288-11; read-out: average effective concentration, CHRF288-11.
Test [8] relates to CMS. Description: Secondary dose-response HTS, Cell Titer Glo. The class given is cell-based, human. The conditions noted are these: Homo sapiens, HTS; secondary high-throughput screen; CMS; read-out: average effective concentration, CMS.
For test [9], the system named is M07e. Description: Secondary dose-response HTS, Cell Titer Glo. The conditions noted are these: Homo sapiens, M-07e; secondary high-throughput screen; M07e; read-out: average effective concentration, M07e. The class given is cell-based, human.
The test system of another test is ML2. The test is described as follows: Secondary dose-response HTS, Cell Titer Glo. The class given is cell-based, human. The conditions noted are these: Homo sapiens; secondary high-throughput screen; ML-2; read-out: average effective concentration, ML-2.
Test [10] relates to MOLM-13. Description: cells. More on the design: species or system AML cell lines (8); Secondary HTS, 10-point dose-response in triplicate, Cell Titer Glo viability, four-parameter fit EC50. As to conditions: Homo sapiens, MOLM-13, 72 h, read-out: MOLM-13.
The test system of test [11] is CMK. Description: cells. Set-up: species or system AML cell lines (8); Secondary HTS, 10-point dose-response in triplicate, Cell Titer Glo viability, four-parameter fit EC50. The conditions noted are these: Homo sapiens, CMK, 72 h, read-out: CMK.
Test [12] has as its system CMK. Description: Secondary dose-response HTS, Cell Titer Glo. The class given is cell-based, human. The conditions noted are these: Homo sapiens, CMK, read-out: average effective concentration, CMK.
In test [13] the test system is U937. The test is described as follows: Secondary dose-response HTS, Cell Titer Glo. The test is classed as cell-based, human. The conditions noted are these: Homo sapiens.
The subject of test [14] is MV4-11. The test is described as follows: Secondary dose-response HTS, Cell Titer Glo. The test is classed as cell-based, human. The conditions noted are these: Homo sapiens; secondary high-throughput screen; MV4-11; read-out: average effective concentration, MV4-11.
Where [15] appears, read: secondary high-throughput screen.
Setting [16] is: U-937, secondary high-throughput screen, U937, read-out: average effective concentration, U937.

`NC(=O)c1ccc(I)c([N+](=O)[O-])c1` [INIPARIB]: the EC50 in the test with MOLM-13 [1], in the test with MV4-11 [2], with CHRF288-11 [3], in the test on CMS [4], with M07e [5] and in the test on ML-2 was more than 10 µM in each case. For the same compound, the EC50 in the test on U937 [6] is more than 10 µM.
Take `CCOc1ccccc1-n1c(C(C)N2CCN(C(=O)COc3ccc(Cl)cc3)CC2)nc2ccccc2c1=O` (centres unmarked) [ERASTIN]: the EC50 was 0.19 µM with CHRF288-11 [7]; 9.5 µM in the test with CMS [8]; 7.5 µM in the test on M07e [9]; 0.54 µM in the test on ML2; more than 10 µM with MOLM-13 [10]; more than 10 µM in the test on MV4-11 [2]. In addition, the EC50 in the test on CMK [11] and in the test with U937 [6] was more than 10 µM in each case.
As to `CC(C)C[C@H](NC(=O)[C@H](CCc1ccccc1)NC(=O)CN1CCOCC1)C(=O)N[C@@H](Cc1ccccc1)C(=O)N[C@@H](CC(C)C)C(=O)[C@@]1(C)CO1` [Carfilzomib], the EC50 in the test with ML-2 is 0.0029 µM.
On the same count and under the same terms, as for `CC(=O)O[C@@]12CO[C@@H]1C[C@H](O)[C@@]1(C)C(=O)[C@H](O)C3=C(C)[C@@H](OC(=O)[C@H](O)[C@@H](NC(=O)OC(C)(C)C)c4ccccc4)C[C@@](O)([C@@H](OC(=O)c4ccccc4)[C@H]21)C3(C)C` [Docetaxel, docetaxel], the figure is more than 10 µM.
With `Nc1ncnc2c1ncn2[C@@H]1C=C(CO)[C@@H](O)[C@H]1O` [SJ000784248, NEPLANOCIN A], the EC50 with MOLM-13 [10] is 0.36 µM; in the test on MV4-11 [2] it was more than 10 µM; in the test with CHRF288-11 [3], 6.5 µM; with CMS [4], more than 10 µM; in the test with M07e [5] it was more than 10 µM; in the test with ML-2, 5.8 µM. In the test on U937 [6], the EC50 is 1.1 µM.
Regarding `Cn1cncc1[C@@](N)(c1ccc(Cl)cc1)c1ccc2c(c1)c(-c1cccc(Cl)c1)cc(=O)n2C` [TIPIFARNIB], the EC50 with CMK [12] was 1.4 µM; with U937 [13] (U-937, read-out: average effective concentration, U937) it was 0.54 µM; in the test with MOLM-13 [10] it was more than 10 µM; in the test on MV4-11 [2] it was more than 10 µM; in the test with CHRF288-11 [3], more than 10 µM; with CMS [4], more than 10 µM. The EC50 in the test with M07e [5] and in the test on ML-2 was more than 10 µM in each case.
Regarding `COc1cc2c(Nc3ccc(Br)cc3F)ncnc2cc1OCC1CCN(C)CC1` [VANDETANIB], the EC50 was 10 µM in the test on MOLM-13 [1]; 5.8 µM with CMK [12]; more than 10 µM in the test with MV4-11 [2]; more than 10 µM in the test with CHRF288-11 [3]; more than 10 µM with CMS [4]; more than 10 µM in the test with M07e [5]. Moreover, the EC50 with ML-2 and in the test with U937 [6] was more than 10 µM in each case.
`C=CC(=O)N1CCC[C@@H](n2nc(-c3ccc(Oc4ccccc4)cc3)c3c(N)ncnc32)C1` [Ibrutinib]: the EC50 with CHRF288-11 [3], in the test with M07e [5] and in the test with ML-2 was more than 10 µM in each case.
On to `Nc1ncn([C@H]2C[C@H](O)[C@@H](CO)O2)c(=O)n1` [DECITABINE], for which the EC50 in the test with MOLM-13 [1] was 0.001 µM; with CHRF288-11 [7], 7 µM; with CMK [12] (setting [15]), 4.3 µM; in the test on U937 [13] (setting [16]) it was 0.31 µM; with MV4-11 [2] it was 9.6 µM; in the test with CMS [4], more than 10 µM. Further, the EC50 in the test with M07e [5] and in the test with ML-2 was more than 10 µM throughout.
Turning to `Nc1nccc2c1ncn2[C@@H]1C=C(CO)[C@@H](O)[C@H]1O` [SJ000785904, 3-DEAZANEPLANOCIN], the EC50 is 0.19 µM with MOLM-13 [10]; more than 10 µM in the test with MV4-11 [2]; 1.8 µM in the test with CHRF288-11 [3]; more than 10 µM in the test with CMS [4]; 0.001 µM in the test on M07e [5]; more than 10 µM in the test with ML-2. In addition, the EC50 in the test with U937 [6] is more than 10 µM.
For `N[C@@H]1C[C@H]1c1ccccc1` (racemic) [SJ000286124, TRANYLCYPROMINE], the EC50 with MOLM-13 [10], with MV4-11 [2], with CHRF288-11 [3], with CMS [4], in the test on M07e [5] and in the test with ML-2 was more than 10 µM in each case. The EC50 in the test on U937 [6] was more than 10 µM.
As for `Nc1nc(Cl)nc2c1ncn2[C@@H]1O[C@H](CO)[C@@H](O)[C@@H]1F` [Clofarabine, clofarabine], the EC50 with ML-2 was determined as 0.125 µM.
As for `CN(C)C1CCN(C(=O)c2ccc(NC(=O)Nc3ccc(-c4nc(N5CCOCC5)nc(N5CCOCC5)n4)cc3)cc2)CC1` [SJ000784327, PF-05212384], the EC50 in the test on CHRF288-11 [3], in the test on CMS [4], in the test on M07e [5] and in the test with ML-2 was more than 10 µM throughout.
Turning to `COc1cc(CCc2cc(NC(=O)c3ccc(N4C[C@@H](C)N[C@@H](C)C4)cc3)n[nH]2)cc(OC)c1` [AZD4547], the EC50 in the test on CHRF288-11 [3], with CMS [4], in the test with M07e [5], in the test on ML-2 and in the test with U937 [6] was more than 10 µM each time.
`Cn1c(=O)n(-c2ccc(C(C)(C)C#N)cc2)c2c3cc(-c4cnc5ccccc5c4)ccc3ncc21` [DACTOLISIB]: the EC50 in the test on CMK [12] (setting [15]) is 0.066 µM; with MOLM-13 [10], more than 10 µM; in the test on MV4-11 [2], more than 10 µM; in the test with CHRF288-11 [3] it was more than 10 µM; with CMS [4] it was more than 10 µM; in the test on M07e [5] it was more than 10 µM. Besides, the EC50 in the test on ML-2 and with U937 [6] was more than 10 µM in each case.
In the case of `CC(=O)c1c(C)c2cnc(Nc3ccc(N4CCNCC4)cn3)nc2n(C2CCCC2)c1=O` [Palbociclib], the EC50 with MOLM-13 [10], in the test with MV4-11 [2], in the test on CHRF288-11 [3], in the test on M07e [5] and in the test with ML-2 was more than 10 µM throughout.
For `Cc1ncc(CNC(=O)N(CCCl)N=O)c(N)n1` [NIMUSTINE], the EC50 in the test with CMK [12] (setting [15]) was 10 µM; in the test on MOLM-13 [10] it was more than 10 µM; in the test with MV4-11 [2], more than 10 µM; in the test with CHRF288-11 [3], more than 10 µM; in the test with CMS [4], more than 10 µM; with M07e [5], more than 10 µM. For the same compound, the EC50 in the test with ML-2 and in the test on U937 [6] was more than 10 µM in each case.
As for `N[C@@H]1C[C@H]1c1cc(F)cc(F)c1OCc1ccccc1` [SJ000785902, S2101], the EC50 in the test with MOLM-13 [10], with MV4-11 [2], with CHRF288-11 [3], in the test with CMS [4], in the test on M07e [5] and with ML-2 was more than 10 µM each time. For the same compound, the EC50 in the test on U937 [6] is more than 10 µM.
Consider `CS(=O)(=O)N1CCN(Cc2cc3nc(-c4cccc5[nH]ncc45)nc(N4CCOCC4)c3s2)CC1` [Pictilisib], for which the EC50 with MOLM-13 [10], in the test on MV4-11 [2], with CHRF288-11 [3], in the test on CMS [4], with M07e [5] and in the test on ML-2 was more than 10 µM in each case. For the same compound, the EC50 with U937 [6] is more than 10 µM.
For `O=C(O)CNC(=O)C(=O)O` [N-OXALYLGLYCINE], the EC50 was 2.3 µM in the test with MOLM-13 [1]; 3.3 µM in the test on U937 [13] (setting [16]); more than 10 µM in the test on MV4-11 [2]; more than 10 µM in the test with CHRF288-11 [3]; more than 10 µM in the test with CMS [4]; more than 10 µM with M07e [5]. For the same compound, in the test with ML-2, the EC50 was more than 10 µM.
Take `COc1cc2nccc(Oc3ccc(NC(=O)C4(C(=O)Nc5ccc(F)cc5)CC4)cc3)c2cc1OC` [CABOZANTINIB]: the EC50 in the test with MOLM-13 [1] was 0.05 µM; in the test with MV4-11 [14], 0.001 µM; with CMK [12] (setting [15]) it was 7.3 µM; in the test on CHRF288-11 [3], more than 10 µM; in the test with CMS [4] it was more than 10 µM; with M07e [5], more than 10 µM. Also, the EC50 in the test on ML-2 and in the test with U937 [6] was more than 10 µM throughout.
Take `Cn1cc(CNCC2CCN(c3ncc(C(=O)NO)cn3)CC2)c2ccccc21` [Quisinostat]: the EC50 in the test on M07e [5] came to 0.0042 µM; in the test with ML-2, 0.00387 µM; in the test with U937 [6], 0.0052 µM.
